Laboratory results as given in ChEMBL document CHEMBL3797029, “Purinylpyridinylamino-based DFG-in/αC-helix-out B-Raf inhibitors: Applying mutant versus wild-type B-Raf selectivity indices for compound profiling” (Bioorg Med Chem, 2016).

Key:
[1] = biological target: Ephrin type-A receptor 4 (Homo sapiens) (UniProt P54764); assay: Inhibition of partial length wild type human EPHA4 expressed in bacterial system assessed as enzyme activity at 1 uM relative to control; set-up: scale not given: the % may be the effect or the level left
[2] = biological target: Platelet-derived growth factor receptor beta (Homo sapiens) (UniProt P09619); assay: Inhibition of partial length wild type human PDGFRbeta expressed in bacterial system assessed as enzyme activity at 1 uM relative to control; set-up: scale not given: the % may be the effect or the level left
[3] = biological target: Ribosomal protein S6 kinase alpha-5 (Homo sapiens) (UniProt O75582); assay: Inhibition of partial length wild type human RPS6KA5 (N-terminal Kinase Domain 1) expressed in bacterial system assessed as enzyme activity at 1 uM relative to control; set-up: scale not given: the % may be the effect or the level left
[4] = biological target: Dual specificity protein kinase CLK1 (Homo sapiens) (UniProt P49759); assay: Inhibition of full length wild type human CLK1 expressed in bacterial system assessed as enzyme activity at 1 uM relative to control; set-up: scale not given: the % may be the effect or the level left
Dual specificity protein kinase CLK1 (Homo sapiens), sequence (P49759 whole entry, looked up): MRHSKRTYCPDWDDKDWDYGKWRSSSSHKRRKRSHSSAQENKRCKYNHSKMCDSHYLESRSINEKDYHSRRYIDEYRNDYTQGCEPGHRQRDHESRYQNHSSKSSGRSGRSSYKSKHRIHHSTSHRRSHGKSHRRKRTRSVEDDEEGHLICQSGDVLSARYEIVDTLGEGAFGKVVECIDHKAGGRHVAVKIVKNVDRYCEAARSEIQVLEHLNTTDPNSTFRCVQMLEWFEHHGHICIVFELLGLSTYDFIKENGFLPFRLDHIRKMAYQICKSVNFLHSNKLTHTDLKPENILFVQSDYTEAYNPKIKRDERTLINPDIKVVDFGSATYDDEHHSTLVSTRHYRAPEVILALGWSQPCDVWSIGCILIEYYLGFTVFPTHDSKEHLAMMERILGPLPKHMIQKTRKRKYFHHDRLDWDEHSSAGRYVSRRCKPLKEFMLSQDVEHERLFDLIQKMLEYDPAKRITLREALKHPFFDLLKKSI

[5] = biological target: Glycogen synthase kinase-3 beta (Homo sapiens) (UniProt P49841); assay: Inhibition of full length wild type human GSK3beta expressed in mammalian system assessed as enzyme activity at 1 uM relative to control; set-up: scale not given: the % may be the effect or the level left
Glycogen synthase kinase-3 beta (Homo sapiens), sequence (P49841 whole entry, looked up): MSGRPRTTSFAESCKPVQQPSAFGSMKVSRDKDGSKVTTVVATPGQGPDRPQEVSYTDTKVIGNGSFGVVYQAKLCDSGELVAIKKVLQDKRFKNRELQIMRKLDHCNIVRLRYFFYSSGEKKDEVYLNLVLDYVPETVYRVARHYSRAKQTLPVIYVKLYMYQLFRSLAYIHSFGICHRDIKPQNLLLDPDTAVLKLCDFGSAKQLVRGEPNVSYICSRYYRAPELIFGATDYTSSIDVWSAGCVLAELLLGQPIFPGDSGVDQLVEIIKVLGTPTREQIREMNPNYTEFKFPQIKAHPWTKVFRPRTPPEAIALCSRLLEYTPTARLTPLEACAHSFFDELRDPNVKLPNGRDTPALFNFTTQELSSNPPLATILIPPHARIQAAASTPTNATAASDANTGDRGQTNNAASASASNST

[6] = biological target: Vascular endothelial growth factor receptor 2 (Homo sapiens) (UniProt P35968); assay: Inhibition of partial length wild type human VEGFR2 expressed in mammalian system assessed as enzyme activity at 1 uM relative to control; set-up: scale not given: the % may be the effect or the level left
[7] = biological target: Mitogen-activated protein kinase kinase kinase 1 (Homo sapiens) (UniProt Q13233); assay: Inhibition of partial length wild type human MAP3K1 expressed in mammalian system assessed as enzyme activity at 1 uM relative to control; set-up: scale not given: the % may be the effect or the level left
[8] = biological target: Dual specificity protein kinase CLK2 (Homo sapiens) (UniProt P49760); assay: Inhibition of partial length wild type human CLK2 expressed in bacterial system assessed as enzyme activity at 1 uM relative to control; set-up: scale not given: the % may be the effect or the level left
[9] = tested on: MIA PaCa-2; assay: Selectivity index, ratio of EC50 for wild type B-Raf in human MIAPaCa2 cells to IC50 for B-Raf V600E mutant in human A375 cells; format: cell-based
[10] = biological target: Death-associated protein kinase 1 (Homo sapiens) (UniProt P53355); assay: Inhibition of partial length wild type human DAPK1 expressed in bacterial system assessed as enzyme activity at 1 uM relative to control; set-up: scale not given: the % may be the effect or the level left
[11] = biological target: Ephrin type-B receptor 3 (Homo sapiens) (UniProt P54753); assay: Inhibition of partial length wild type human EPHB3 expressed in bacterial system assessed as enzyme activity at 1 uM relative to control; set-up: scale not given: the % may be the effect or the level left
[12] = biological target: MAP/microtubule affinity-regulating kinase 3 (Homo sapiens) (UniProt P27448); assay: Inhibition of full length wild type human MARK3 expressed in bacterial system assessed as enzyme activity at 1 uM relative to control; set-up: scale not given: the % may be the effect or the level left
[13] = biological target: Dual specificity mitogen-activated protein kinase kinase 3 (Homo sapiens) (UniProt P46734); assay: Inhibition of full length wild type human MEK3 expressed in mammalian system assessed as enzyme activity at 1 uM relative to control; set-up: scale not given: the % may be the effect or the level left
[14] = biological target: Cyclin-dependent kinase 2 (Homo sapiens) (UniProt P24941); assay: Inhibition of full length wild type human CDK2 expressed in bacterial system assessed as enzyme activity at 1 uM relative to control; set-up: scale not given: the % may be the effect or the level left
[15] = biological target: Serine/threonine-protein kinase OSR1 (Homo sapiens) (UniProt O95747); assay: Inhibition of full length wild type human OSR1 expressed in mammalian system assessed as enzyme activity at 1 uM relative to control; set-up: scale not given: the % may be the effect or the level left
[16] = biological target: Dual specificity tyrosine-phosphorylation-regulated kinase 1A (Homo sapiens) (UniProt Q13627); assay: Inhibition of partial length wild type human DYRK1A expressed in mammalian system assessed as enzyme activity at 1 uM relative to control; set-up: scale not given: the % may be the effect or the level left
[17] = biological target: Phosphatidylinositol 4,5-bisphosphate 3-kinase catalytic subunit delta isoform (Homo sapiens) (UniProt O00329); assay: Inhibition of partial length wild type human PIK3CD expressed in mammalian system assessed as enzyme activity at 1 uM relative to control; set-up: scale not given: the % may be the effect or the level left
[18] = biological target: Interleukin-1 receptor-associated kinase 4 (Homo sapiens) (UniProt Q9NWZ3); assay: Inhibition of partial length wild type human IRAK4 expressed in mammalian system assessed as enzyme activity at 1 uM relative to control; set-up: scale not given: the % may be the effect or the level left
[19] = biological target: Mitogen-activated protein kinase kinase kinase 19 (Homo sapiens) (UniProt Q56UN5); assay: Inhibition of partial length wild type human YSK4 expressed in mammalian system assessed as enzyme activity at 1 uM relative to control; set-up: scale not given: the % may be the effect or the level left
[20] = biological target: Serine/threonine-protein kinase PLK1 (Homo sapiens) (UniProt P53350); assay: Inhibition of partial length wild type human PLK1 expressed in mammalian system assessed as enzyme activity at 1 uM relative to control; set-up: scale not given: the % may be the effect or the level left
Serine/threonine-protein kinase PLK1 (Homo sapiens), sequence (P53350 whole entry): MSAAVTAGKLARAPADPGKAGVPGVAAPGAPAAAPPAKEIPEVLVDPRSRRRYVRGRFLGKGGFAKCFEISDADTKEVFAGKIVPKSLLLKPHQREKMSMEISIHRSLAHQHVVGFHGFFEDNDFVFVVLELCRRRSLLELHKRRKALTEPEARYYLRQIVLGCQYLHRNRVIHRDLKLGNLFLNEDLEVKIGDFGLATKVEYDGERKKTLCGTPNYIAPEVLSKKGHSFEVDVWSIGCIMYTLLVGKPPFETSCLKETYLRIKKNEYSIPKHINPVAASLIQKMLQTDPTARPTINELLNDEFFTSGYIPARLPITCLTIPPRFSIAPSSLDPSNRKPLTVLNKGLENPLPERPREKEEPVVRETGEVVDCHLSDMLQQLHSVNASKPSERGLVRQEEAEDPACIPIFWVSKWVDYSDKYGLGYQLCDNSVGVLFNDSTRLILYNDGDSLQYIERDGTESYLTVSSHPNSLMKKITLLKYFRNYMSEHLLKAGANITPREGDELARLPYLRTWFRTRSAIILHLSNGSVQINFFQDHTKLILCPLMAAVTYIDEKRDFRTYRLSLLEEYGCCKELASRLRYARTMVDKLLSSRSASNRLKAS

[21] = biological target: Proto-oncogene tyrosine-protein kinase Src (Homo sapiens) (UniProt P12931); assay: Inhibition of partial length wild type human SRC expressed in bacterial system assessed as enzyme activity at 1 uM relative to control; set-up: scale not given: the % may be the effect or the level left
Proto-oncogene tyrosine-protein kinase Src (Homo sapiens), sequence (P12931 2-536 limits assumed): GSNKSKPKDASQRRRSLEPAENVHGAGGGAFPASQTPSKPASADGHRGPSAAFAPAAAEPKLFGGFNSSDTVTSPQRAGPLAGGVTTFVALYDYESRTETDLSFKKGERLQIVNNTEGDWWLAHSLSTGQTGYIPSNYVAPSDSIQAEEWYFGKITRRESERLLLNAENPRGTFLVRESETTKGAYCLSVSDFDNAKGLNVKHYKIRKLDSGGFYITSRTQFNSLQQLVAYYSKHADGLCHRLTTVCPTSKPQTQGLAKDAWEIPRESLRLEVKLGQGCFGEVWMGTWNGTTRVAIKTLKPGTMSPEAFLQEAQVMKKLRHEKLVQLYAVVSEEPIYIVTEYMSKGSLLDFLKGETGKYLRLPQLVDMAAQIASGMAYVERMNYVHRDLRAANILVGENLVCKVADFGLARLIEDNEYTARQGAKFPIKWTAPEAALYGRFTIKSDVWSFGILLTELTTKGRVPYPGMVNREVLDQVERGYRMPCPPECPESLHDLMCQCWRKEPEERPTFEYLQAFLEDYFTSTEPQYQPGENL

[22] = biological target: Myotonin-protein kinase (Homo sapiens) (UniProt Q09013); assay: Inhibition of partial length wild type human DMPK expressed in bacterial system assessed as enzyme activity at 1 uM relative to control; set-up: scale not given: the % may be the effect or the level left
[23] = biological target: Serine/threonine-protein kinase 32B (Homo sapiens) (UniProt Q9NY57); assay: Inhibition of full length wild type human YANK2 expressed in bacterial system assessed as enzyme activity at 1 uM relative to control; set-up: scale not given: the % may be the effect or the level left
Serine/threonine-protein kinase 32B (Homo sapiens), sequence (Q9NY57 whole entry): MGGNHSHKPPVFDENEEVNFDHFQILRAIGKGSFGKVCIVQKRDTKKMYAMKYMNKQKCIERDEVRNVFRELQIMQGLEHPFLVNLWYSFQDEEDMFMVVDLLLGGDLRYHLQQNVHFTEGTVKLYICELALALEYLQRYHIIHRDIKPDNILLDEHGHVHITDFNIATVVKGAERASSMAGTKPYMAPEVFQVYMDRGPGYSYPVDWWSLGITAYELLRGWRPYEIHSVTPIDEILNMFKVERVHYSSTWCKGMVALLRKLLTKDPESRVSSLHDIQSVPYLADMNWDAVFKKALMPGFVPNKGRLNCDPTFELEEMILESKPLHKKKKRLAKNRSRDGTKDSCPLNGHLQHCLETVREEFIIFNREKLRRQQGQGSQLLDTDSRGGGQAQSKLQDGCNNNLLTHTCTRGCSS

[24] = biological target: Hepatocyte growth factor receptor (Homo sapiens) (UniProt P08581); assay: Inhibition of partial length wild type human MET expressed in bacterial system assessed as enzyme activity at 1 uM relative to control; set-up: scale not given: the % may be the effect or the level left
[25] = biological target: Serine/threonine-protein kinase TBK1 (Homo sapiens) (UniProt Q9UHD2); assay: Inhibition of full length wild type human TBK1 expressed in mammalian system assessed as enzyme activity at 1 uM relative to control; set-up: scale not given: the % may be the effect or the level left
Serine/threonine-protein kinase TBK1 (Homo sapiens), sequence (Q9UHD2 whole entry): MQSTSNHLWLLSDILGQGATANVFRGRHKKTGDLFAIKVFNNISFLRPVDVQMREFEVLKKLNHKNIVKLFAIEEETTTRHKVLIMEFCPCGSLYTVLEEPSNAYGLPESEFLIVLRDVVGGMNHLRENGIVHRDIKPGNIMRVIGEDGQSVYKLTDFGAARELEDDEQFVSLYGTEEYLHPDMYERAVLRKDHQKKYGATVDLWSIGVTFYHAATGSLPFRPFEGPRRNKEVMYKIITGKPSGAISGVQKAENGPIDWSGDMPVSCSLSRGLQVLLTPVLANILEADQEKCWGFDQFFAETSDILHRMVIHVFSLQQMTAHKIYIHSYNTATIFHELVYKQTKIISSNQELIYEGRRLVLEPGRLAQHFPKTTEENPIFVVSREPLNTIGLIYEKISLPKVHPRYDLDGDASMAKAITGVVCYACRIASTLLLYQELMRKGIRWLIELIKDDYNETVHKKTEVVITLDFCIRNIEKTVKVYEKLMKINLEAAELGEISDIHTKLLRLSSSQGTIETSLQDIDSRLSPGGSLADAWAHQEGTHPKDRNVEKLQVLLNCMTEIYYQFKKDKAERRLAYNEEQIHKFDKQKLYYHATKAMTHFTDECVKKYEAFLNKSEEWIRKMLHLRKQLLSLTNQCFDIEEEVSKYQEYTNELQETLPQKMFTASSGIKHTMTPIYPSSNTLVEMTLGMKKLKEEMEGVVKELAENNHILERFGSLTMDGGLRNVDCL

[26] = tested on: RIPK2 (Receptor-interacting serine/threonine-protein kinase 2); assay: Inhibition of partial length wild type human RIPK2 expressed in bacterial system assessed as enzyme activity at 1 uM relative to control; set-up: scale not given: the % may be the effect or the level left
[27] = biological target: Protein-tyrosine kinase 6 (Homo sapiens) (UniProt Q13882); assay: Inhibition of partial length wild type human BRK expressed in bacterial system assessed as enzyme activity at 1 uM relative to control; set-up: scale not given: the % may be the effect or the level left
Protein-tyrosine kinase 6 (Homo sapiens), sequence (Q13882 whole entry, looked up): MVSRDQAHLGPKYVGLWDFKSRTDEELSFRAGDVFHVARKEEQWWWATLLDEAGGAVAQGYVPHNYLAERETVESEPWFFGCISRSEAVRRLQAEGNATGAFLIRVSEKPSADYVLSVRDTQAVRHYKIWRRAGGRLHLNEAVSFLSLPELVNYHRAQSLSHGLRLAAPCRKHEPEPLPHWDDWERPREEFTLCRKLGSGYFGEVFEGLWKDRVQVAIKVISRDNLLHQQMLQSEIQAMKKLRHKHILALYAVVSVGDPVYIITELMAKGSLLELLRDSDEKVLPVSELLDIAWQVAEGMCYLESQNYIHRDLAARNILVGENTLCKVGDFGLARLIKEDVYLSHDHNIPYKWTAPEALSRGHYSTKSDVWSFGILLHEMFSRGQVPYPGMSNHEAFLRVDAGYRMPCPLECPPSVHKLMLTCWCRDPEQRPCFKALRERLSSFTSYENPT

[28] = biological target: Serine/threonine-protein kinase MARK1 (Homo sapiens) (UniProt Q9P0L2); assay: Inhibition of partial length wild type human MARK1 expressed in bacterial system assessed as enzyme activity at 1 uM relative to control; set-up: scale not given: the % may be the effect or the level left
[29] = biological target: Serine/threonine-protein kinase Nek4 (Homo sapiens) (UniProt P51957); assay: Inhibition of full length wild type human NEK4 expressed in mammalian system assessed as enzyme activity at 1 uM relative to control; set-up: scale not given: the % may be the effect or the level left
Serine/threonine-protein kinase Nek4 (Homo sapiens), sequence (P51957 whole entry, looked up): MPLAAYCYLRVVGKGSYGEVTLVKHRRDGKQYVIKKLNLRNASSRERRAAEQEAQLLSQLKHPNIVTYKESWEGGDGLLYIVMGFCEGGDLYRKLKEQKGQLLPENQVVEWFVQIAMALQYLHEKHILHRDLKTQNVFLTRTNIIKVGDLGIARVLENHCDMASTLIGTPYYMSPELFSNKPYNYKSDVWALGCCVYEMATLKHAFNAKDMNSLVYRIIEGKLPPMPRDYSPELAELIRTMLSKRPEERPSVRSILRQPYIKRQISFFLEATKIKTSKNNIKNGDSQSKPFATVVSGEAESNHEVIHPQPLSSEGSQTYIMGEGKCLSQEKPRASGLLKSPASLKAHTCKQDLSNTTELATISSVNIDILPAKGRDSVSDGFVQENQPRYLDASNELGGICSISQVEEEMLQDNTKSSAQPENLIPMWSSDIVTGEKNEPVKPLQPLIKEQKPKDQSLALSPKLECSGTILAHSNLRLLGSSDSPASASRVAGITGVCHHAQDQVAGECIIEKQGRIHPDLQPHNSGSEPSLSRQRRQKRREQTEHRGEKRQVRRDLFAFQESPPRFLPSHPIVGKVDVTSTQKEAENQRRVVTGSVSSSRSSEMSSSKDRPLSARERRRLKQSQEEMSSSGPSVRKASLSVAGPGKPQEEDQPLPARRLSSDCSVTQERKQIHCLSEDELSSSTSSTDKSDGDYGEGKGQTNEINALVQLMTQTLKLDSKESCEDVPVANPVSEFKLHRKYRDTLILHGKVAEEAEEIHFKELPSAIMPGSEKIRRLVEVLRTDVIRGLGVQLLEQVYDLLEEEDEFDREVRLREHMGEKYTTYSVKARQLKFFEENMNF

[30] = biological target: Tyrosine-protein kinase Fyn (Homo sapiens) (UniProt P06241); assay: Inhibition of partial length wild type human FYN expressed in bacterial system assessed as enzyme activity at 1 uM relative to control; set-up: scale not given: the % may be the effect or the level left
[31] = biological target: Cyclin-dependent kinase 8 (Homo sapiens) (UniProt P49336); assay: Inhibition of partial length wild type human CDK8 expressed in bacterial system assessed as enzyme activity at 1 uM relative to control; set-up: scale not given: the % may be the effect or the level left
Cyclin-dependent kinase 8 (Homo sapiens), sequence (P49336 whole entry): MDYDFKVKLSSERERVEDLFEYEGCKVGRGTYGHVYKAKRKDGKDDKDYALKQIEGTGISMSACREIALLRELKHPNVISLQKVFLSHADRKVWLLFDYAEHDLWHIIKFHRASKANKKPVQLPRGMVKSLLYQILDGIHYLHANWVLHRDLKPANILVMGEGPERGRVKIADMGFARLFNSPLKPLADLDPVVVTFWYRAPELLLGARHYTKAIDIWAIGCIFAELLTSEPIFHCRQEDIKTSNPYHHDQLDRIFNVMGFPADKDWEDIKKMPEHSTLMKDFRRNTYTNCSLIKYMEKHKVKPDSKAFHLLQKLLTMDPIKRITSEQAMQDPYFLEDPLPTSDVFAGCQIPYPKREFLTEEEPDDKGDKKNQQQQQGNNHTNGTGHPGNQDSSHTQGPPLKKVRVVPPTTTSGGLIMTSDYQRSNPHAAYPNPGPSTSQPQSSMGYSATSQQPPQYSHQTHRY

[32] = biological target: MAP kinase-interacting serine/threonine-protein kinase 1 (Homo sapiens) (UniProt Q9BUB5); assay: Inhibition of full length wild type human MKNK1 expressed in mammalian system assessed as enzyme activity at 1 uM relative to control; set-up: scale not given: the % may be the effect or the level left

Activity [1]: 90%
Activity [2]: 73%
Activity [3]: 100%
Activity [4]: 90%
Activity [5]: 100%
Activity [6]: 84%
Activity [7]: 83%
Activity [8]: 79%
Activity [11]: 94%
Activity [12]: 87%
Activity [13]: 100%
Activity [14]: 99%
Activity [15]: 88%
Activity [16]: 96%
Activity [17]: 37%
Activity [18]: 99%
Activity [19]: 63%
Activity [20]: 100%
Activity [21]: 100%
Activity [22]: 100%
Activity [23]: 100%
Activity [24]: 88%
Activity [25]: 100%
Activity [26]: 40%
Activity [27]: 14%
Activity [28]: 100%
Activity [29]: 100%
Activity [30]: 64%
Activity [31]: 85%
Activity [32]: 77%
Structure (SMILES): CN(C)S(=O)(=O)Nc1ccc(F)c(Nc2ncccc2-c2ncnc3[nH]cnc23)c1F
Ratio [9]: 33
Activity [10]: 100%
